{"source": "patent US6958360B2", "about": "“Attractant pheromone for the Colorado potato beetle” (The United States of America as represented by the …, priority 2001, dated 2005)", "key": {"CPB adult antenna": {"system": "CPB adult antenna", "assay": "Coupled GC/electroantennogram detection (GC/EAD, EAG)", "set-up": "species or system Leptinotarsa decemlineata", "details": "for EAD response to compound in volatile collections (in words): volatiles from potato plants / CPB feeding on plant", "protocol": "Vertical bars represent standard errors (N=6, 3 males and 3 females).\nGC/EAD analysis of volatile collections: One microlitre samples of volatile collections were injected into a Hewlett Packard™ Model 5890A gas chromatograph (GC) equipped with an HP-5 capillary column (crosslinked 5% PH ME Siloxane; film thickness 0.25 μm; length 30 m; i.d. 0.25 mm) and flame ionization detector (FID). The effluent from the column was split using a Gerstel™ GraphPack-3D/2 splitter with a ratio of ˜1 to the GC (FID): 4 to an electroantennogram preparation of a CPB adult (EAD). The EAD preparation was an adult CPB antenna removed and mounted between two glass capillary electrodes filled with 0.1M NaCl. Ag—AgCl wires in the glass capillaries. An effluent conditioning assembly to carry GC effluent over a CPB antennal preparation, hardware, and software for data collection and analyses using a computer were obtained from SYNTECH (Hilversum, the Netherlands). After an initial temperature of 50° C. held for 2 minutes following injection, the GC oven increased at 15° C./min to 235° C. which was held for 8 minutes.\n(§1) Sensitivity of antennal olfactory receptors for the racemate and optical isomers of the male specific compound were tested using coupled GC/EAD and single sensillum recording techniques. GC/EAD tests involved injection of 1 μl of serial dilutions of 3,7-dimethyl-2-oxo-oct-6-ene-1,3-diol (CPB I)."}, "[1]": {"system": "Colorado potato beetle (CPB)", "assay": "Open Y-track olfactometer behavioral bioassay, optical isomers vs solvent control", "assay_type": "in vivo, Leptinotarsa decemlineata", "details": "serial source loads 0.0001 to 1.0 μg vs solvent control, male and female", "protocol": "Chemical blends and plant foliage were tested for behavioral activity in an open Y-track olfactometer modified after Visser and Piron (Visser, J. H., and P. G. M. Piron, Proceedings of the Section Experimental and Applied Entomology of the Netherlands Entomological Society Amsterdam, 9: 41-46 (1998)) and described in detail by Dickens (Dickens, J. C., Agric. Forest Entomol., 1: 47-54 (1999)). In brief, odorous stimuli emanating from volatile collections from CPB males feeding on potato plants or the male-specific compound on filter paper discs (2.5 cm dia.; Whatman™ #1 filter paper) in Ehrlenmeyer flasks were delivered to either side of the device. Hydrocarbon free air that was humidified by passing through distilled water carried the odor molecules to either arm of the bioassay apparatus. Treatments were replenished after 30 min of use in the bioassay apparatus. Airflow was regulated to 1 l/min by flowmeters. Experiments were conducted in a darkened room at 22° C. in which the only source of light was that associated with the bioassay device. For all bioassays, at least 20 males and 20 females were tested.\nVolatile collections from male CPB feeding for three hours on a potato plant and serial dilutions of the male specific compound were tested as 10 μl aliquots placed on a filter paper disc as described above. The male specific compound was tested at 1.0 μg/10 μl solvent (hexane) and in a dilution series ranging from 0.0001 to 1.0 μg/10 μl solvent.\nPrior to testing at age 7-14 days, unmated insects were held individually in 5.5 oz. cups, provided with fresh potato foliage on a continuous basis, and maintained under incubator conditions of a 16:8 light:dark cycle, 80-90% R.H., and “day” and “night” temperatures of 25° C. and 23° C., respectively. On the day of testing, insects were transferred to smaller 1 oz. cups and held for 1-3 hrs with moist filter paper but no foliage, then held in darkness for an additional 1-2 hrs.\nIndividual testing in a darkened room at 22° C. began by allowing the beetle to climb onto or be placed approximately midway up the vertical rod of the “T.” In response to a positive phototaxis to light from a flashlight mounted above the “T” and negative geotaxis, the beetles generally climbed upward. Once the insect began waving its antennae, presumably in response to test odors, its forward progress continued. Orientation was scored as soon as the test insect had moved completely from the horizontal to one of the 45 extension arms of the bioassay device. Following each test, the bioassay device was cleaned with acetone to remove contamination left by the insect. For any given series of tests, approximately half were done with the treatment and associated test apparatus on one side, and half were done with them on the other side.\nLaboratory bioassays were assessed for significant differences by the hypothesis on binomial proportions based on the standard normal approximation (Brase, C. H., and C. P. Brase (1983), Understanding Statistics, Lexington, Mass.: D. C. Heath)."}, "[2]": {"system": "antennal olfactory receptors (short sensillum on the penultimate antennal segment of a CPB)", "assay": "Single sensillum (single cell) recording of receptor neuron response", "set-up": "species or system Leptinotarsa decemlineata", "details": "100 ng source load; solvent control 8", "protocol": "as §1"}, "male CPB": {"system": "male CPB", "assay": "Enhancement of production of male-specific compound CPB I (24 hour volatile collection)", "assay_type": "in vivo, Leptinotarsa decemlineata", "protocol": "CPB I=male-specific compound; P=6-methyl-5-hepten-2-one; FID=response of flame ionization detector. Electroantennogram (EAD) response is included for A-C.\nVolatiles were collected from male CPB feeding on 4.8 g of potato foliage in the 3 L VCC. Collections were made continuously for a 24-hour period with a single VCT. Subsequently, volatiles from groups of 20 female CPB were similarly collected in the 3 L VCC continuously for 24 hours with a single VCT.\nIn an attempt to increase production of the male specific compound, males were subject to the following treatments: JHIII in acetone, extirpation of both antennae, and extirpation of both antennae+JHIII in acetone. All treatments were repeated at least three times. For the JHIII treatment, […] of a 5 μg/ml solution of JHIII was applied to the prothoracic sternum between the coxae. Antennae were removed at the third segment from the proximal end. All treatments were performed 1 hour before placing beetles into the VCC. For the treatment with both antennae removed+JHIII, three separate collections were made continuously for at least seven days following treatment. The collection chamber was cleaned, rinsed, and fresh foliage added daily."}}}
{"smiles": "CC(C)=CCCC(C)(O)C(=O)CO", "note": "(racemic) [racemic CPB I, 3,7-dimethyl-2-oxo-oct-6-ene-1,3-diol]", "values": [{"measurement": "Mean EAG (in words)", "setting": "CPB adult antenna; 10 ng injection, males and females combined", "result": "intermediate response"}, {"measurement": "orientation preference (in words)", "setting": "[1]", "result": "no significant preference"}, {"measurement": "action potentials during 500 msec following the initial phasic increase", "setting": "[2]", "result": 18, "unit": "action potentials"}]}
{"smiles": "OCCc1ccccc1", "note": "[2-phenyl ethanol, reference compound]", "values": [{"measurement": "EAD response to compound in volatile collections (in words)", "setting": "CPB adult antenna", "result": "an EAD response for 2-phenyl ethanol was also observed"}]}
{"smiles": "CC(C)=CCC[C@@](C)(O)C(=O)CO", "note": "[(R)-CPB I]", "values": [{"measurement": "orientation preference (in words)", "setting": "[1]", "result": "inactive"}, {"measurement": "orientation preference (in words)", "setting": "[1]; listed as (R)-enantiomer", "result": "no significant preference"}, {"measurement": "action potentials during 500 msec following the initial phasic increase", "setting": "[2]", "result": 9, "unit": "action potentials"}]}
{"smiles": "COC(=O)/C=C(\\C)CC/C=C(\\C)CC[C@H]1OC1(C)C", "note": "[JH III, juvenile hormone III]", "values": [{"measurement": "production of CPB I after topical treatment", "setting": "male CPB; 10 μg JH III topical, 20 males, 24 hour collection, untreated mean 53 ng", "result": 396.2, "unit": "ng"}, {"measurement": "enhancement of collections of CPB I", "setting": "male CPB; JH III and antennectomy", "result": "~200", "unit": "×"}, {"measurement": "enhancement of CPB I production relative to untreated males", "setting": "male CPB; JH III topical alone", "result": "eightfold"}, {"measurement": "production of CPB I after combined treatment", "setting": "male CPB; JH III topical and antennectomy", "result": 8833, "unit": "ng"}, {"measurement": "increase of quantities of CPB I released vs control insects", "setting": "male CPB; JH III treatment and antennectomy", "result": 166, "unit": "times"}]}
{"smiles": "CCCCCCCCC=O", "note": "[nonanal, reference compound]", "values": [{"measurement": "EAD response to compound in volatile collections (in words)", "setting": "CPB adult antenna", "result": "EAD responses were present"}]}
